Where two headings read alike, the source gives them in different places. m = 2'-O-methyl; r = 2'-OH (RNA)

In data set [1] the test system is mouse KSP mRNA. Briefly: 5′ RACE-PCR in Neuro2a cells. It counts as cell-based. Particulars: 24 h. The protocol: (A) HT29 cells were treated with 10 nM SNALP-formulated PLK1424, Luc siRNA or PBS. RNA was isolated 24 hours after transfection and assayed for the specific PLK-1 mRNA cleavage product by 5′-RACE-PCR. (B) Neuro2a cells were treated with SNALP-formulated KSP2263, PLK773 siRNA or PBS. RNA was isolated 24 hours after transfection and assayed for the specific mouse KSP mRNA cleavage product by 5′-RACE-PCR.
The detection of specific RNA cleavage products generated by RISC-mediated hydrolysis of target mRNA is the definitive marker confirming RNAi as the mechanism of gene silencing (39, 40). Activated RISC cleaves target mRNA precisely between the nucleotides complementary to positions 10 and 11 of the siRNA AS strand generating an mRNA cleavage product that is unique to the siRNA sequence. This can be detected in cells using an appropriately designed 5′-rapid amplification of cDNA ends-PCR method (RACE-PCR). We developed RACE-PCR assays to detect the PLK1424-specific cleavage product of human PLK-1 mRNA and the KSP2263-specific cleavage product of mouse KSP mRNA.
(§1) 5′ RNA Ligase Mediated Rapid Amplification of cDNA ends (5′ RLM RACE).

In data set [2] the test system is mouse KSP mRNA. The data set is described as follows: 5′ RACE-PCR of hepatic Neuro2a tumors. The class given is in vivo.
Source text: as §1

In the next data set the test system is Neuro2a tumors. The data set is described as follows: Hepatic Neuro2a tumor histology (H&E, quantitative). The class given is in vivo, mouse. The protocol: Hepatic Neuro2a tumor histology 24 h after a single intravenous administration of (A) Luc-U/U or (B) KSP2263-U/U siRNA formulated in SNALP (2 mg/kg siRNA). Images are at 200× magnification and representative of tumors from at least 6 individual mice. […] (C) Quantitative histology of H&E stained tumor tissues from mice treated with SNALP-formulated KSP2263-U/U at 4, 2, 1, or 0.5 mg/kg siRNA. Tumor cells with condensed chromatin structures were scored positive and calculated as a % of total tumor cells taken from 10 fields of view. Positive cells included aberrant and typical mitotic and apoptotic figures. Values are mean+SD of 3 mice. Mean SNALP particle size and (polydispersity) were 88 (0.07) and 82 (0.08) nm for KSP2263 and Luc, respectively.
Histology. Tumors were harvested from mice 24 h after siRNA administration and fixed directly in 10% buffered formalin. Tissues were then processed as paraffin embedded tissue sections and stained with Hematoxylin and Eosin using conventional histological techniques. Quantitative analysis of stained sections was performed by counting the number of mitotic/apoptotic cells displaying condensed chromatin structures as a percentage of total tumor cells. Values for each tumor were derived from means of 10 fields of view at 400× magnification.

Another data set deals with Neuro2a liver tumors. Briefly: Intrahepatic Neuro2a tumor model (survival). It counts as in vivo, mouse. Particulars: A/J mice, hepatic Neuro2a tumors, 4 mg/kg Q3d x5. As for the experimental part: PLK1424-2/A treatment confers significant survival advantages in scid/beige mice bearing hepatic Hep3B tumors. Mice were administered SNALP-formulated PLK1424-2/A (n=15) or Luc-U/U (n=8) at 6×2 mg/kg, intravenous twice weekly (d 10 to d 28). (A) Body weights (mean+SD) over the dosing period expressed as % of initial weight on d 10. (B) Kaplan-Meier plot of days to euthanization due to tumor burden. […] (p=0.03, Log-rank Mantel Cox test). (C) Residual hepatic Hep3B tumor burden in mice 24 h after final administration of PLK1424-2/A siRNA (5×2 mg/kg siRNA on d 8, 11, 14, 18 & 21). Bars represent hGAPDH mRNA/mg liver of individual mice (mean+/−SD of triplicate analyses) determined by human-specific bDNA assay (No tumor=livers from non-tumor seeded mice). […]
Intrahepatic tumor models. […] Mice were allowed to recover from anaesthesia in a sterile cage and monitored closely for 2-4 h before being returned to conventional housing.
Eight to 11 days after tumor implantation, mice were randomized into treatment groups. siRNA SNALP formulations or PBS vehicle control were administered by standard intravenous injection via the lateral tail vein, calculated on a mg siRNA/kg basis according to individual animal weights (10 mL/kg injection volume). Body weights were then monitored throughout the duration of the study as an indicator of developing tumor burden and treatment tolerability. […]

The next data set relates to HeLa cells. Briefly: Monoastral spindle formation in HeLa cells. The class given is cell-based, human. The following applies: 20 nM, 16 h. The protocol:
HeLa cells were treated for 16 h with (A) Luc or (B) KSP2263 siRNA at 20 nM then immunostained for α-tubulin (FITC). DNA was stained with DAPI and flourescent images captured and overlayed.

The test system of data set [3] is IFIT1 mRNA, serum IFNα. Particulars: mouse, in vivo, iv.
Description: (§2) Balb/c mice (n=4 per group) were administered 2.5 mg/kg siRNA or lipid vehicle; serum IFNα (pg/mL) and IFIT1 mRNA (relative to GAPDH) from whole liver lysates were assessed after 4, 8, and 16 h by ELISA and bDNA assay, respectively. […] (b) Serum IFNα and (c) liver IFIT1 mRNA were assessed 4 h after administration (mean+SD, n=4).
(§3) SNALP-formulated Luc (unmodified) and the 2′OMe-modified Luc-U/U, PLK1424-2/A, PLK773-1/B, or KSP2263-U/U siRNA were administered at 2 mg/kg i.v. to Balb/C mice. (A) IFIT1 relative to GAPDH mRNA in liver and spleen was assessed at 4 h by bDNA analysis. […] Serum IFNα was assessed at 6 h by ELISA. […] Values represent mean+SD (n=4).
(§4) IFIT1 mRNA and serum cytokines were assessed 4-6 h after SNALP administration based on the approximate time of peak response for these markers. In these studies, SNALP-formulated native Luc siRNA (Table 6) was used as a positive control for immune stimulation.
(§5) In vivo immune stimulation assays. […] 6-8 week old Balb/C mice were obtained from Harlan and subject to a two week acclimation period prior to use. Mice were administered SNALP formulated siRNA (2 mg/kg) in PBS via standard intravenous injection in the lateral tail vein. Blood was collected by cardiac puncture and processed as plasma for cytokine analysis. Liver and spleen were collected into RNALater (Sigma Co.) for IFIT1 mRNA analysis.
(§6) Measurement of IFIT1 mRNA in mouse tissues. Murine liver and spleen were processed for bDNA assay to quantitate IFIT1 mRNA as described above. The IFIT1 probe set was specific to mouse IFIT1 mRNA (positions 4-499 of NM—008331) and the GAPDH probe set was specific to mouse GAPDH mRNA (positions 9-319 of NM—008084). Data is shown as the ratio of IFIT1 relative light units (RLU) to GAPDH RLU.
(§7) Cytokine ELISA. All cytokines were quantified using sandwich ELISA kits. These were mouse interferon-α (PBL Biomedical; Piscataway, N.J.) and human and mouse IL-6 (BD Biosciences; San Diego, Calif.).
Data set [4] has as its system IFIT1 mRNA, serum IFNα. The data set is described as follows: In vivo immune stimulation assay in Balb/c mice (IFIT1 mRNA, serum IFNα). Particulars: SNALP-formulated siRNA IV; for IFIT1 mRNA induction in liver and spleen: 4 h.
Description: as §2, §3, §4, §5, §6, §7
The next data set concerns Hep3B liver tumors. Briefly: Intrahepatic Hep3B tumor model (survival, body weight, tumor burden). It counts as in vivo. The following applies: scid/beige mice, 2 mg/kg IV twice weekly for 3 weeks. The protocol: SNALP containing PLK-1 siRNA (“1:57” SNALP formulation: 1.4% PEG-cDMA; 57.1% DLinDMA; 7.1% DPPC; and 34.3% cholesterol) were tested for their effects on the survival of […] mice bearing Hep3B liver tumors.
Intrahepatic tumor models. Liver tumors were established in mice by direct intrahepatic injection of Hep3B or Neuro2a tumor cells (45). Female scid/beige mice (Charles River Laboratories) and male A/J mice (Jackson Laboratories) were used as hosts for the Hep3B and Neuro2a tumors, respectively. Animals received Anafen by SC injection immediately prior to surgery. Individual mice were anaesthetized by isoflourane gas inhalation and eye lube applied to prevent excessive eye drying. While maintained under gas anaesthesia, a single 1.5 cm incision across the midline was made below the sternum and the left lateral hepatic lobe exteriorized. 1×10^6 Hep3B cells or 1×10^5 Neuro2a cells suspended in 25 μL PBS were injected slowly into the lobe at a shallow angle using a Hamilton syringe and 30G needle. A swab was then applied to the puncture wound to stop any bleeding prior to suturing. Mice were allowed to recover from anaesthesia in a sterile cage and monitored closely for 2-4 h before being returned to conventional housing.
Eight to 11 days after tumor implantation, mice were randomized into treatment groups. siRNA SNALP formulations or PBS vehicle control were administered by standard intravenous injection via the lateral tail vein, calculated on a mg siRNA/kg basis according to individual animal weights (10 mL/kg injection volume). Body weights were then monitored throughout the duration of the study as an indicator of developing tumor burden and treatment tolerability. For efficacy studies, defined humane endpoints were determined as a surrogate for survival. Assessments were made by qualified veterinary technicians based on a combination of clinical signs, weight loss, and abdominal distension to define the day of euthanization due to tumor burden.
Measurement of human PLK-1 and GAPDH mRNA in tumor tissues. Tumors were harvested directly into RNALater and stored at 4° C. until processing. 100 mg tumor tissue was homogenized in Tissue and Lysis Solution (EpiCentre Biotechnologies) containing […] proteinase K (EpiCentre) in a Fastprep tissue homogenizer followed by incubation in a 65° C. waterbath for 15 min and centrifuged to clarify lysates. mRNA analysis in FIG. 33B was performed on purified RNA isolated according the 5′-RACE-PCR protocol. Human PLK-1 and GAPDH mRNA were measured in tumor lystes by the QuantiGene bDNA assay (Panomics) as per the manufacturer's instructions (Quantigene 1.0 Manual). […] Data were expressed as mean PLK-1:GAPDH ratio+/−SD of individual animals. Tumor burden was assessed by homogenizing the complete liver from tumor bearing mice and measuring the total hGAPDH signal (RLU's) within the liver. Values were expressed as hGAPDH RLU/mg total liver.

The subject of the next data set is PLK-1 mRNA. The data set is described as follows: 5′ RACE-PCR of Hep3B liver tumors. The class given is in vivo, human. Particulars: hepatic Hep3B tumors, single 2 mg/kg IV dose.
Source text: as §1

Data set [5] concerns Flt3-ligand derived murine dendritic cells. The data set is described as follows: Cytokine induction in murine Flt3L dendritic cell cultures (ELISA). It counts as cell-based, mouse. Particulars: murine Flt3L DC, 5 μg/ml siRNA in SNALP, 24 h. As for the experimental part: Cytokine Induction Assays: Flt3-ligand derived murine dendritic cells (Flt3L DC) were generated as described by Gilliet et al. (J. Exp. Med., 195:953-958) using 100 ng/ml murine Flt3-ligand (PeproTech Inc.; Rocky Hill, N.J.) supplemented media. Femurs and tibiae of female Balb/C mice were isolated and rinsed in sterile PBS. The ends of bones were cut and marrow harvested in complete media (RPMI 1640, 10% heat inactivated FBS, 1% penicillin/streptomycin, 2 mM L-glutamine, 1 mM sodium pyruvate, 25 mM HEPES, 50 μM 2-mercaptoethanol). Bone marrow cells were passed through a 70 μm strainer, centrifuged at 1000 rpm for 7 minutes, and resuspended in complete media supplemented with 100 ng/ml murine Flt3L to 2×10^6 cells/ml. 2 mls of cells were seeded in 6-well plates and 1 ml fresh complete media added every two or three days. On day 9 of culture, non-adherent cells were washed in complete media and plated into 96-well plates at concentrations ranging from 0.5 to 2.5×10^5 cells/well. 2′OMe-modified and unmodified (0/0) PLK-1 SNALP were diluted in PBS and added to Flt3L DC cultures at 5 μg/ml siRNA. Cells were incubated for 24 hours at 37° C. before supernatants were assayed for cytokines by ELISA.
Cytokine ELISA: Interferon-α and IL-6 in culture supernatants were quantified using sandwich ELISA kits according to manufacturer's instructions. These were mouse IFN-α (PBL Biomedical; Piscataway, N.J.) and mouse IL-6 (eBioscience; San Diego, Calif.).
In vitro immune stimulation assays. Mouse Flt3L dendritic cell cultures were generated as described previously (65). In brief, bone marrow from Balb/C mice was harvested in complete media (RPMI 1640, 10% FBS, 1% penicillin/streptomycin, 2 mM L-glutamine, 1 mM sodium pyruvate, 25 mM HEPES, 50 uM 2-mercaptoethanol), passed through a 70 micron strainer and resuspended to 2×10^6 cells/mL in complete media supplemented with 100 ng/mL murine Flt3L (Peprotech). Cells were seeded in 6-well plates and 1 mL fresh Flt3L media added every three days. On day 9 of culture, non-adherent cells were plated into 96 well plates at a concentration 2×10^5 cells/well. Formulated siRNA were diluted in PBS and added to the cells for 24 h before supernatants were assayed for cytokines by ELISA.
Cytokine ELISA. All cytokines were quantified using sandwich ELISA kits.
(In general: In an ELISA, binding on a coated surface is turned into a signal by an enzyme label.)

Data set [6] can be described thus: Multi-dose toxicity study in CD1 ICR mice. It counts as in vivo, mouse. The following applies: 2 mg/kg twice weekly, after 15 and 29 days. The protocol: Groups of CD1 ICR mice were administered PBS, PLK773-1/B, or Luc-U/U SNALP to assess potential cumulative toxicities associated with either PLK-1 silencing or the lipid vehicle. Mice were treated twice weekly at 2 mg/kg siRNA, equivalent to the efficacious dosing regimen in tumor studies. […] All values are mean+/−SD (n=6). No changes in red blood cell parameters were observed.

In the case of “KSP2263-U/U: 2′OMe-modified KSP2263 duplex, SEQ ID NO:227/229 (chain 1 CNGAAGACCNGAAGACAANTT; chain 2 AUUGUCUNCAGGNCUNCAGTT; siRNA; 2'-O-methyl modifications at selected positions, key for n not given here)”, the “KSP mRNA cleavage product by 5′ RACE-PCR” value with mouse KSP mRNA [1] is “predicted 102 bp RACE-PCR product was amplified”. Also, the “RNAi-mediated KSP mRNA cleavage by RACE-PCR” value in the data set with mouse KSP mRNA [2] is reported as “confirmed the specific induction of RNAi-mediated KSP mRNA cleavage within tumors”. Further, the “Neuro2a tumor histology (aberrant mitotic figures)” value in the data set with Neuro2a tumors (24 h after SNALP administration) was “significant numbers of tumor cells with aberrant mitotic figures typical of monoastral and apoptotic cells”. In addition, the “tumor cells with condensed chromatin structures, % of total tumor cells” value in the data set on Neuro2a tumors (24 h post siRNA treatment) is recorded as approximately 13%. Also, in the data set on Neuro2a liver tumors, the median survival time amounted to 28 days. Besides, in the data set with HeLa cells, the monoastral spindle phenotype result is listed as “induced the distinct monoastral nuclear phenotype in vitro”. In the data set on IFIT1 mRNA, serum IFNα [3], the “serum IFNα / serum cytokine response” value was “no measurable IFNα”. In the data set on IFIT1 mRNA, serum IFNα [4], the “IFIT1 mRNA induction in liver and spleen” value was “no measurable IFNα or increase in IFIT1 mRNA in the liver or spleen”.
Consider “Luc-U/U: control 2′OMe siRNA targeting luciferase, SEQ ID NO:233/234 (chain 1 GANUANGNCCGGNNANGNAUU; chain 2 UACANAACCGGACANAANCUU; 2'-O-methyl modifications at selected positions, key for n not given here) [reference compound]”, for which the median survival time in the data set with Hep3B liver tumors stood at 32 days. The “time until first euthanization” value in the data set with Hep3B liver tumors (days after tumor seeding) is 28 days. In addition, the “specific cleavage product of PLK-1 mRNA by 5′ RACE-PCR” value in the data set with PLK-1 mRNA is reported as “not evident”. For the same substance, in the data set with IFIT1 mRNA, serum IFNα [3], the “serum IFNα / serum cytokine response” value was “no measurable IFNα”. Also, the “IFIT1 mRNA induction in liver and spleen” value in the data set on IFIT1 mRNA, serum IFNα [4] was “no measurable IFNα or increase in IFIT1 mRNA in the liver or spleen”.
For the substance “PLK773-1/B: 2′OMe-modified PLK773 duplex, SEQ ID NO:220/223 (chain 1 AGACCUACCUCCGGAUCAAUU; chain 2 UUGAUCCGNAGNUAGGNCUUU; siRNA; chain 1: sugars from the 5' end r1 m1 r10 m1 r8, backbone not given here; chain 2: chemistry not given here)”, the “cytokine (IL-6, IFN-α) response” value in data set [5] is on record as “completely abrogated”. The “clinical chemistry and blood counts” value in data set [6] was “no significant changes in serum liver enzymes, total wbc, lymphocyte and neutrophil counts, platelet numbers, or rbc parameters”. Further, the “serum IFNα / serum cytokine response” value in the data set with IFIT1 mRNA, serum IFNα [4] (4-6 h) is “no measurable IFNα”. The “IFIT1 mRNA induction in liver and spleen” value in the data set on IFIT1 mRNA, serum IFNα [4] was “no measurable IFNα or increase in IFIT1 mRNA in the liver or spleen”.

For the origin of these results see US9006191B2, “Silencing of polo-like kinase expression using interfering RNA” (Protiva Biotherapeutics, Inc., priority 2007, dated 2015).
